Results as given in the NIST ThermoML archive (doi:10.1021/je050416y).

Test: xn = mol fraction of the nth substance listed
Settings: 101 kPa, Liquid; for mass density: Vibrating tube method

CCC(C)(C)O [2-methylbutan-2-ol] + CCO
Settings	kinematic viscosity [m2/s]	mass density [kg/m3]
293.15 K, x1 = 0.0268	–	790.6
293.15 K, x1 = 0.0549	–	791.5
293.15 K, x1 = 0.0845	–	792.2
293.15 K, x1 = 0.0915	1.64e-06	–
293.15 K, x1 = 0.1156	–	793
293.15 K, x1 = 0.1484	–	793.9
293.15 K, x1 = 0.1753	1.76e-06	–
293.15 K, x1 = 0.183	–	794.8
293.15 K, x1 = 0.2524	1.89e-06	–
293.15 K, x1 = 0.2584	–	797
293.15 K, x1 = 0.3235	2.04e-06	–
293.15 K, x1 = 0.3433	–	799.5
293.15 K, x1 = 0.3894	2.19e-06	–
293.15 K, x1 = 0.4395	–	802.4
293.15 K, x1 = 0.4505	2.35e-06	–
293.15 K, x1 = 0.5495	–	805.3
293.15 K, x1 = 0.5605	2.69e-06	–
293.15 K, x1 = 0.6567	3.07e-06	–
293.15 K, x1 = 0.6765	–	808.3
293.15 K, x1 = 0.7416	3.46e-06	–
293.15 K, x1 = 0.817	3.86e-06	–
293.15 K, x1 = 0.8247	–	811.2
293.15 K, x1 = 0.8844	4.26e-06	–
293.15 K, x1 = 0.9451	4.67e-06	–
293.15 K, x1 = 1	5.11e-06	813.9
298.15 K, x1 = 0.0268	–	786.4
298.15 K, x1 = 0.0549	–	787.3
298.15 K, x1 = 0.0845	–	788.2
298.15 K, x1 = 0.0915	1.5e-06	–
298.15 K, x1 = 0.1156	–	789.1
298.15 K, x1 = 0.1484	–	790
298.15 K, x1 = 0.1753	1.62e-06	–
298.15 K, x1 = 0.183	–	791
298.15 K, x1 = 0.2524	1.74e-06	–
298.15 K, x1 = 0.2584	–	793.3
298.15 K, x1 = 0.3235	1.86e-06	–
298.15 K, x1 = 0.3433	–	795.9
298.15 K, x1 = 0.3894	1.99e-06	–
298.15 K, x1 = 0.4395	–	798.8
298.15 K, x1 = 0.4505	2.13e-06	–
298.15 K, x1 = 0.5495	–	801.8
298.15 K, x1 = 0.5605	2.43e-06	–
298.15 K, x1 = 0.6567	2.76e-06	–
298.15 K, x1 = 0.6765	–	804.8
298.15 K, x1 = 0.7416	3.1e-06	–
298.15 K, x1 = 0.817	3.44e-06	–
298.15 K, x1 = 0.8247	–	807.7
298.15 K, x1 = 0.8844	3.78e-06	–
298.15 K, x1 = 0.9451	4.12e-06	–
298.15 K, x1 = 1	4.47e-06	810.5
303.15 K, x1 = 0.0268	–	782.1
303.15 K, x1 = 0.0549	–	783.2
303.15 K, x1 = 0.0845	–	784.2
303.15 K, x1 = 0.0915	1.34e-06	–
303.15 K, x1 = 0.1156	–	785.2
303.15 K, x1 = 0.1484	–	786.2
303.15 K, x1 = 0.1753	1.44e-06	–
303.15 K, x1 = 0.183	–	787.3
303.15 K, x1 = 0.2524	1.55e-06	–
303.15 K, x1 = 0.2584	–	789.7
303.15 K, x1 = 0.3235	1.66e-06	–
303.15 K, x1 = 0.3433	–	792.3
303.15 K, x1 = 0.3894	1.78e-06	–
303.15 K, x1 = 0.4395	–	795.2
303.15 K, x1 = 0.4505	1.91e-06	–
303.15 K, x1 = 0.5495	–	798.2
303.15 K, x1 = 0.5605	2.17e-06	–
303.15 K, x1 = 0.6567	2.45e-06	–
303.15 K, x1 = 0.6765	–	801.3
303.15 K, x1 = 0.7416	2.74e-06	–
303.15 K, x1 = 0.817	3.04e-06	–
303.15 K, x1 = 0.8247	–	804.2
303.15 K, x1 = 0.8844	3.33e-06	–
303.15 K, x1 = 0.9451	3.62e-06	–
303.15 K, x1 = 1	3.91e-06	807
308.15 K, x1 = 0.0268	–	777.8
308.15 K, x1 = 0.0549	–	778.9
308.15 K, x1 = 0.0845	–	780
308.15 K, x1 = 0.0915	1.23e-06	–
308.15 K, x1 = 0.1156	–	781.1
308.15 K, x1 = 0.1484	–	782.3
308.15 K, x1 = 0.1753	1.33e-06	–
308.15 K, x1 = 0.183	–	783.4
308.15 K, x1 = 0.2524	1.42e-06	–
308.15 K, x1 = 0.2584	–	785.9
308.15 K, x1 = 0.3235	1.52e-06	–
308.15 K, x1 = 0.3433	–	788.6
308.15 K, x1 = 0.3894	1.62e-06	–
308.15 K, x1 = 0.4395	–	791.5
308.15 K, x1 = 0.4505	1.72e-06	–
308.15 K, x1 = 0.5495	–	794.6
308.15 K, x1 = 0.5605	1.95e-06	–
308.15 K, x1 = 0.6567	2.19e-06	–
308.15 K, x1 = 0.6765	–	797.6
308.15 K, x1 = 0.7416	2.43e-06	–
308.15 K, x1 = 0.817	2.68e-06	–
308.15 K, x1 = 0.8247	–	800.6
308.15 K, x1 = 0.8844	2.93e-06	–
308.15 K, x1 = 0.9451	3.16e-06	–
308.15 K, x1 = 1	3.39e-06	803.5
313.15 K, x1 = 0.0268	–	773.5
313.15 K, x1 = 0.0549	–	774.8
313.15 K, x1 = 0.0845	–	776
313.15 K, x1 = 0.0915	1.12e-06	–
313.15 K, x1 = 0.1156	–	777.2
313.15 K, x1 = 0.1484	–	778.4
313.15 K, x1 = 0.1753	1.2e-06	–
313.15 K, x1 = 0.183	–	779.6
313.15 K, x1 = 0.2524	1.29e-06	–
313.15 K, x1 = 0.2584	–	782.2
313.15 K, x1 = 0.3235	1.37e-06	–
313.15 K, x1 = 0.3433	–	784.9
313.15 K, x1 = 0.3894	1.46e-06	–
313.15 K, x1 = 0.4395	–	787.9
313.15 K, x1 = 0.4505	1.55e-06	–
313.15 K, x1 = 0.5495	–	790.9
313.15 K, x1 = 0.5605	1.74e-06	–
313.15 K, x1 = 0.6567	1.94e-06	–
313.15 K, x1 = 0.6765	–	794
313.15 K, x1 = 0.7416	2.14e-06	–
313.15 K, x1 = 0.817	2.34e-06	–
313.15 K, x1 = 0.8247	–	797.1
313.15 K, x1 = 0.8844	2.54e-06	–
313.15 K, x1 = 0.9451	2.73e-06	–
313.15 K, x1 = 1	2.91e-06	800
318.15 K, x1 = 0.0268	–	769.3
318.15 K, x1 = 0.0549	–	770.6
318.15 K, x1 = 0.0845	–	771.9
318.15 K, x1 = 0.0915	1.02e-06	–
318.15 K, x1 = 0.1156	–	773.2
318.15 K, x1 = 0.1484	–	774.4
318.15 K, x1 = 0.1753	1.1e-06	–
318.15 K, x1 = 0.183	–	775.7
318.15 K, x1 = 0.2524	1.18e-06	–
318.15 K, x1 = 0.2584	–	778.4
318.15 K, x1 = 0.3235	1.25e-06	–
318.15 K, x1 = 0.3433	–	781.2
318.15 K, x1 = 0.3894	1.33e-06	–
318.15 K, x1 = 0.4395	–	784.2
318.15 K, x1 = 0.4505	1.41e-06	–
318.15 K, x1 = 0.5495	–	787.3
318.15 K, x1 = 0.5605	1.57e-06	–
318.15 K, x1 = 0.6567	1.73e-06	–
318.15 K, x1 = 0.6765	–	790.5
318.15 K, x1 = 0.7416	1.9e-06	–
318.15 K, x1 = 0.817	2.07e-06	–
318.15 K, x1 = 0.8247	–	793.6
318.15 K, x1 = 0.8844	2.23e-06	–
318.15 K, x1 = 0.9451	2.38e-06	–
318.15 K, x1 = 1	2.52e-06	796.6
323.15 K, x1 = 0.0268	–	764.9
323.15 K, x1 = 0.0549	–	766.3
323.15 K, x1 = 0.0845	–	767.7
323.15 K, x1 = 0.0915	9.01e-07	–
323.15 K, x1 = 0.1156	–	769.1
323.15 K, x1 = 0.1484	–	770.4
323.15 K, x1 = 0.1753	9.68e-07	–
323.15 K, x1 = 0.183	–	771.8
323.15 K, x1 = 0.2524	1.03e-06	–
323.15 K, x1 = 0.2584	–	774.6
323.15 K, x1 = 0.3235	1.09e-06	–
323.15 K, x1 = 0.3433	–	777.5
323.15 K, x1 = 0.3894	1.16e-06	–
323.15 K, x1 = 0.4395	–	780.5
323.15 K, x1 = 0.4505	1.22e-06	–
323.15 K, x1 = 0.5495	–	783.7
323.15 K, x1 = 0.5605	1.35e-06	–
323.15 K, x1 = 0.6567	1.49e-06	–
323.15 K, x1 = 0.6765	–	787
323.15 K, x1 = 0.7416	1.62e-06	–
323.15 K, x1 = 0.817	1.75e-06	–
323.15 K, x1 = 0.8247	–	790.2
323.15 K, x1 = 0.8844	1.87e-06	–
323.15 K, x1 = 0.9451	1.99e-06	–
323.15 K, x1 = 1	2.09e-06	793.3
